Assay results as given in US8735398B2 (Bristol-Myers Squibb Company, priority 2009, dated 2014).

Each compound was assayed on HCV 1b genotype (assay: HCV replicon assay (HCV-neo replicon cells, wild-type)). Conditions: Hepatitis C virus, HCV 1b genotype replicon; class symbol; read-out: EC50 Range against HCV 1b.
Format: cell-based, Hepatitis C virus
How it was run: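 HCV-neo replicon cells (wild-type) and replicon cells carrying NS5A resistance substitutions were treated with compounds; assay per O'Boyle et al. 2005, with luciferase-reporter read-out variants also used.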

Compared with `COc1cccc2c(C(=O)N3CCC[C@H]3C(=O)Nc3ccc(-c4ccc(-c5ccc(NC(=O)[C@@H]6CCCN6C(=O)[C@@H](O)c6ccccc6)cc5)o4)cc3)nc(Cl)cc12` [JG-68, (2S)-1-((3-chloro-5-methoxy-1-isoquinolinyl)carbonyl)-N-(4-(5-(4-((((2S)-1-((2S)-2-hydroxy-2-phenylacetyl)-2-pyrrolidinyl)carbonyl)amino)phenyl)-2-furyl)phenyl)-2-pyrrolidinecarboxamide], `CC(=O)O[C@@H](C(=O)N1CCC[C@H]1C(=O)Nc1ccc(-c2ccc(-c3ccc(NC(=O)[C@@H]4CCCN4C(=O)[C@H](OC(C)=O)c4ccccc4)cc3)o2)cc1)c1ccccc1` is lower in EC50: 100 to 999 nM for the first, less than 4.57 nM for the second. The second is the more potent here.

First: O=C(Nc1ccc(-c2cnc(-c3ccc(NC(=O)N[C@@H]4CCN(C(=O)[C@H](O)c5ccccc5)C4)cc3)o2)cc1)N[C@@H]1CCN(C(=O)[C@H](O)c2ccccc2)C1 [FY-5, N′,N′″-(1,3-oxazole-2,5-diyldi-4,1-phenylene)bis(1-((3R)-1-((2R)-2-hydroxy-2-phenylacetyl)-3-pyrrolidinyl)urea)]
Second: CO[C@H]1C[C@@H](C(=O)Nc2ccc(-c3cnc(-c4ccc(NC(=O)[C@@H]5C[C@H](OC)CN5C(=O)[C@H](O)c5ccccc5)cc4)o3)cc2)N(C(=O)[C@H](O)c2ccccc2)C1 [OL-58, (2S,4S,2′S,4′S)-N,N′-(1,3-oxazole-2,5-diyldi-4,1-phenylene)bis(1-((2R)-2-hydroxy-2-phenylacetyl)-4-methoxy-2-pyrrolidinecarboxamide)]
The EC50 of the first is higher: 100 to 999 nM for the first, less than 4.57 nM for the second. The second is the more potent here.

Compared with `CC(=O)N1CCC[C@H]1C(=O)Nc1ccc(-c2cc(-c3ccc(NC(=O)[C@@H]4CCCN4C(C)=O)cc3)[nH]n2)cc1` [OL-29, (2S,2′S)-N,N′-(1H-pyrazole-3,5-diyldi-4,1-phenylene)bis(1-acetyl-2-pyrrolidinecarboxamide)], `O=C(Nc1ccc(-c2cc(-c3ccc(NC(=O)[C@@H]4CCCN4C(=O)[C@H](O)c4ccccc4)cc3)[nH]n2)cc1)[C@@H]1CCCN1C(=O)[C@H](O)c1ccccc1` [JG-32, (2S,2′S)-N,N′-(1H-pyrazole-3,5-diyldi-4,1-phenylene)bis(1-((2R)-2-hydroxy-2-phenylacetyl)-2-pyrrolidinecarboxamide)] is lower in EC50: 1000 to 10000 nM for the first, less than 4.57 nM for the second.

First: O=C(Nc1ccc(-c2nnc(-c3ccc(NC(=O)[C@@H]4CCCN4C(=O)c4ccc5ccccc5n4)cc3)o2)cc1)[C@@H]1CCCN1C(=O)c1ccc2ccccc2n1 [RK-10, (2S,2′S)-N,N′-(1,3,4-oxadiazole-2,5-diyldi-4,1-phenylene)bis(1-(2-quinolinylcarbonyl)-2-pyrrolidinecarboxamide)]
Second: O=C(Nc1ccc(-c2cnc(-c3ccc(NC(=O)[C@@H]4CCCN4C(=O)Cc4ccccc4)cc3)o2)cc1)[C@@H]1CCCN1C(=O)Cc1ccccc1 [JG-3, (2S,2′S)-N,N′-(1,3-oxazole-2,5-diyldi-4,1-phenylene)bis(1-(phenylacetyl)-2-pyrrolidinecarboxamide)]
The EC50 of the first is higher: 1000 to 10000 nM for the first, less than 4.57 nM for the second. The second is the more potent here.

Same assay, conditions: Hepatitis C virus, HCV 1b genotype replicon; class symbols; read-out: EC50 Range against HCV 1b

`O=C(Nc1ccc(-c2cnc(-c3ccc(NC(=O)[C@@H]4CCCN4C(=O)c4ccco4)cc3)o2)cc1)[C@@H]1CCCN1C(=O)c1ccco1` [XY-37, (2S,2′S)-N,N′-(1,3-oxazole-2,5-diyldi-4,1-phenylene)bis(1-(2-furoyl)-2-pyrrolidinecarboxamide)] and `COc1cccc(CC(=O)N2CCC[C@H]2C(=O)Nc2ccc(-c3cnc(-c4ccc(NC(=O)[C@@H]5CCCN5C(=O)Cc5cccc(OC)c5)cc4)o3)cc2)c1` [XY-3, (2S,2′S)-N,N′-(1,3-oxazole-2,5-diyldi-4,1-phenylene)bis(1-((3-methoxyphenyl)acetyl)-2-pyrrolidinecarboxamide)] fall in the same range of EC50: 100 to 999 nM for the first, 100 to 999 nM for the second.

`COC(C(=O)N1C[C@H](OC(C)(C)C)C[C@H]1C(=O)Nc1ccc(-c2cnc(-c3ccc(NC(=O)[C@@H]4C[C@@H](OC(C)(C)C)CN4C(=O)C(OC)c4ccccc4)cc3)o2)cc1)c1ccccc1` (stereo partly drawn) [XY-67, (2S,4R,2′S,4′R)-N,N′-(1,3-oxazole-2,5-diyldi-4,1-phenylene)bis(4-tert-butoxy-1-(methoxy(phenyl)acetyl)-2-pyrrolidinecarboxamide)] showed an EC50 of 4.57 to 99 nM.

Same assay, conditions: Hepatitis C virus, HCV 1b genotype replicon; read-out: EC50 1b

Compared with `CC(=O)N1CCC[C@H]1C(=O)Nc1ccc(-c2cc(-c3ccc(NC(=O)[C@@H]4CCCN4C(C)=O)cc3)[nH]n2)cc1` [OL-29, (2S,2′S)-N,N′-(1H-pyrazole-3,5-diyldi-4,1-phenylene)bis(1-acetyl-2-pyrrolidinecarboxamide)], `COc1cccc(CC(=O)N2CCC[C@H]2C(=O)Nc2ccc(-c3cnc(-c4ccc(NC(=O)[C@@H]5CCCN5C(=O)Cc5cccc(OC)c5)cc4)o3)cc2)c1` [XY-3, (2S,2′S)-N,N′-(1,3-oxazole-2,5-diyldi-4,1-phenylene)bis(1-((3-methoxyphenyl)acetyl)-2-pyrrolidinecarboxamide)] is 14-fold lower in EC50: 4550 nM for the first, 321 nM for the second. The second is the more potent here.
